Measured values reported in patent US10954228B2 (NATIONAL INSTITUTES OF HEALTH, UNITED STATES DEPARTMENT OF …, priority 2016, dated 2021).
pIC50: −log10 of the molar value.

Tests used:
MiaPaCa2 cells = assay: cell-based HT lactate assay by colorimetric/fluorometric detection (cellular inhibition of lactate production); settings: Homo sapiens, MIA PaCa-2, assay of Example 6
Method: This example describes a cell-based metabolite assay by colorimetric/fluorometric detection employed in the characterization of a compound of formula (I) in an embodiment of the invention.
Cell-based HT Lactate assay is a miniaturized Biovision Lactate Colorimetric/Fluorometric Assay Kit (Cat #K607-100). The assay is roughly a 3.5 hour assay run in a 1536 plate format. Cell number optimization should be run for each cell line to achieve an optimal number in which lactate production equals roughly 90% of the standard curve range. Cell number per well optimization has been performed with the following cell lines: MiaPaCa2—500 cells/well, SNU398—500 cells/well, and P493—500 cells/well.

Human LDHA = Human LDHA (Homo sapiens (Human), UniProt P00338); assay: human LDHA primary biochemical assay; settings: biochemical LDHA inhibitory activity, assay of Example 1; activity level classes defined in nM
Procedure, shortened: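 Human LDHA at 2 nM with 0.06 mM NADH and 0.2 mM sodium pyruvate in 200 mM Tris HCl pH 7.4, 100 μM EDTA, 0.01% TWEEN-20 (final). NADH consumption coupled to resazurin/diaphorase (0.037 mM; 0.133 mg/mL); inhibition read by fluorescence.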

| Structure (SMILES) | pIC50 (MiaPaCa2 cells) | IC50 (Human LDHA) [nM] |
| --- | --- | --- |
| NS(=O)(=O)c1ccc(Cc2c(-c3ccc(F)c(-c4cccc(Cl)c4)c3)nn(-c3nc(C(=O)O)cs3)c2CC2CC2)cc1F [Compound 149, 2-(3-(3′-chloro-6-fluoro-[1,1′-biphenyl]-3-yl)-5-(cyclopropylmethyl)-4-(3-fluoro-4-sulfamoylbenzyl)-1H-pyrazol-1-yl)thiazole-4-carboxylic acid] | > 6.00 | < 100 |
| COc1ccc(-c2cc(-c3nn(-c4nc(C(=O)O)cs4)c(CC4CC4)c3Cc3ccc(S(N)(=O)=O)c(F)c3)ccc2F)cc1C [Compound 150, 2-(5-(cyclopropylmethyl)-3-(6-fluoro-4′-methoxy-3′-methyl-[1,1′-biphenyl]-3-yl)-4-(3-fluoro-4-sulfamoylbenzyl)-1H-pyrazol-1-yl)thiazole-4-carboxylic acid] | > 6.00 | < 100 |
| Cc1cc(C)cc(-c2cc(-c3nn(-c4nc(C(=O)O)cs4)c(CC4CC4)c3Cc3ccc(S(N)(=O)=O)c(F)c3)ccc2F)c1 [Compound 151, 2-(5-(cyclopropylmethyl)-3-(6-fluoro-3′,5′-dimethyl-[1,1′-biphenyl]-3-yl)-4-(3-fluoro-4-sulfamoylbenzyl)-1H-pyrazol-1-yl)thiazole-4-carboxylic acid] | > 6.00 | 100 to 1000 |
| COc1cc(OC)cc(-c2cc(-c3nn(-c4nc(C(=O)O)cs4)c(CC4CC4)c3Cc3ccc(S(N)(=O)=O)c(F)c3)ccc2F)c1 [Compound 153, 2-(5-(cyclopropylmethyl)-3-(6-fluoro-3′,5′-dimethoxy-[1,1′-biphenyl]-3-yl)-4-(3-fluoro-4-sulfamoylbenzyl)-1H-pyrazol-1-yl)thiazole-4-carboxylic acid] | > 6.00 | < 100 |
| NS(=O)(=O)c1ccc(Cc2c(-c3ccc(F)c(-c4ccc5c(c4)CCC5)c3)nn(-c3nc(C(=O)O)cs3)c2CC2CC2)cc1F [Compound 155, 2-(5-(cyclopropylmethyl)-3-(3-(2,3-dihydro-1H-inden-5-yl)-4-fluorophenyl)-4-(3-fluoro-4-sulfamoylbenzyl)-1H-pyrazol-1-yl)thiazole-4-carboxylic acid] | > 6.00 | < 100 |
| NS(=O)(=O)c1ccc(Cc2c(-c3ccc(F)c(-c4cc(F)cc(F)c4)c3)nn(-c3nc(C(=O)O)cs3)c2CC2CC2)cc1F [Compound 156, 2-(5-(cyclopropylmethyl)-4-(3-fluoro-4-sulfamoylbenzyl)-3-(3′,5′,6-trifluoro-[1,1′-biphenyl]-3-yl)-1H-pyrazol-1-yl)thiazole-4-carboxylic acid] | > 6.00 | < 100 |
| NS(=O)(=O)c1ccc(Cc2c(-c3ccc(F)c(-c4cc(Cl)cc(Cl)c4)c3)nn(-c3nc(C(=O)O)cs3)c2CC2CC2)cc1F [Compound 157, 2-(5-(cyclopropylmethyl)-3-(3′,5′-dichloro-6-fluoro-[1,1′-biphenyl]-3-yl)-4-(3-fluoro-4-sulfamoylbenzyl)-1H-pyrazol-1-yl)thiazole-4-carboxylic acid] | > 6.00 | 100 to 1000 |
| NS(=O)(=O)c1ccc(Cc2c(-c3cccc(-c4ccc(Cl)c(F)c4)c3)nn(-c3nc(C(=O)O)cs3)c2CC2CC2)cc1F [Compound 164, 2-(3-(4′-chloro-3′-fluoro-[1,1′-biphenyl]-3-yl)-5-(cyclopropylmethyl)-4-(3-fluoro-4-sulfamoylbenzyl)-1H-pyrazol-1-yl)thiazole-4-carboxylic acid] | > 6.00 | < 100 |
| COc1ccc(-c2cccc(-c3nn(-c4nc(C(=O)O)cs4)c(CC4CC4)c3Cc3ccc(S(N)(=O)=O)c(F)c3)c2)cc1C [Compound 165, 2-(5-(cyclopropylmethyl)-4-(3-fluoro-4-sulfamoylbenzyl)-3-(4′-methoxy-3′-methyl-[1,1′-biphenyl]-3-yl)-1H-pyrazol-1-yl) thiazole-4-carboxylic acid] | > 6.00 | < 100 |
| NS(=O)(=O)c1ccc(Cc2c(-c3cccc(-c4ccc(Cl)cc4)c3)nn(-c3nc(C(=O)O)cs3)c2CC2CC2)cc1F [Compound 166, 2-(3-(4′-chloro-[1,1′-biphenyl]-3-yl)-5-(cyclopropylmethyl)-4-(3-fluoro-4-sulfamoylbenzyl)-1H-pyrazol-1-yl)thiazole-4-carboxylic acid] | > 6.00 | < 100 |
| Cc1ccc(-c2cccc(-c3nn(-c4nc(C(=O)O)cs4)c(CC4CC4)c3Cc3ccc(S(N)(=O)=O)c(F)c3)c2)cc1F [Compound 167, 2-(5-(cyclopropylmethyl)-3-(3′-fluoro-4′-methyl-[1,1′-biphenyl]-3-yl)-4-(3-fluoro-4-sulfamoylbenzyl)-1H-pyrazol-1-yl)thiazole-4-carboxylic acid] | > 6.00 | < 100 |
| CC(C)(C)c1ccc(-c2cccc(-c3nn(-c4nc(C(=O)O)cs4)c(CC4CC4)c3Cc3ccc(S(N)(=O)=O)c(F)c3)c2)cc1 [Compound 168, 2-(3-(4′-(tert-butyl)-[1,1′-biphenyl]-3-yl)-5-(cyclopropylmethyl)-4-(3-fluoro-4-sulfamoylbenzyl)-1H-pyrazol-1-yl)thiazole-4-carboxylic acid] | > 6.00 | 100 to 1000 |
| CC(C)c1ccc(-c2cccc(-c3nn(-c4nc(C(=O)O)cs4)c(CC4CC4)c3Cc3ccc(S(N)(=O)=O)c(F)c3)c2)cc1 [Compound 169, 2-(5-(cyclopropylmethyl)-4-(3-fluoro-4-sulfamoylbenzyl)-3-(4′-isopropyl-[1,1′-biphenyl]-3-yl)-1H-pyrazol-1-yl)thiazole-4-carboxylic acid] | > 6.00 | < 100 |
| CC(C)c1cccc(-c2cccc(-c3nn(-c4nc(C(=O)O)cs4)c(CC4CC4)c3Cc3ccc(S(N)(=O)=O)c(F)c3)c2)c1 [Compound 173, 2-(5-(cyclopropylmethyl)-4-(3-fluoro-4-sulfamoylbenzyl)-3-(3′-isopropyl-[1,1′-biphenyl]-3-yl)-1H-pyrazol-1-yl)thiazole-4-carboxylic acid] | < 4.24 | < 100 |
| NS(=O)(=O)c1ccc(Cc2c(-c3cccc(-c4ccc5c(c4)CCCC5)c3)nn(-c3nc(C(=O)O)cs3)c2CC2CC2)cc1F [Compound 174, 2-(5-(cyclopropylmethyl)-4-(3-fluoro-4-sulfamoylbenzyl)-3-(3-(5,6,7,8-tetrahydronaphthalen-2-yl)phenyl)-1H-pyrazol-1-yl)thiazole-4-carboxylic acid] | < 4.24 | 100 to 1000 |
| NS(=O)(=O)c1ccc(Cc2c(-c3cccc(-c4cccc(Cl)c4)c3)nn(-c3nc(C(=O)O)cs3)c2CC2CC2)cc1F [Compound 175, 2-(3-(3′-chloro-[1,1′-biphenyl]-3-yl)-5-(cyclopropylmethyl)-4-(3-fluoro-4-sulfamoylbenzyl)-1H-pyrazol-1-yl)thiazole-4-carboxylic acid] | < 4.24 | < 100 |
| N#Cc1ccc(-c2cccc(-c3nn(-c4nc(C(=O)O)cs4)c(CC4CC4)c3Cc3ccc(S(N)(=O)=O)c(F)c3)c2)cc1 [Compound 176, 2-(3-(4′-cyano-[1,1′-biphenyl]-3-yl)-5-(cyclopropylmethyl)-4-(3-fluoro-4-sulfamoylbenzyl)-1H-pyrazol-1-yl)thiazole-4-carboxylic acid] | < 4.24 | < 100 |
| NS(=O)(=O)c1ccc(Cc2c(-c3cccc(-c4cc(F)cc(F)c4)c3)nn(-c3nc(C(=O)O)cs3)c2CC2CC2)cc1F [Compound 177, 2-(5-(cyclopropylmethyl)-3-(3′,5′-difluoro-[1,1′-biphenyl]-3-yl)-4-(3-fluoro-4-sulfamoylbenzyl)-1H-pyrazol-1-yl)thiazole-4-carboxylic acid] | < 4.24 | < 100 |
